Experimental data as given in patent US20030207830A1, “Mutant NDP kinases for antiviral nucleotide analog activation and therapeutic uses thereof” (priority 2002, published 2003).

What was measured:
[1] = target: T1, Dictyostelium NDP Kinase N119S (Dictyostelium discoideum, UniProt P22887, N119S); test: Pre-steady-state fluorescence stopped-flow phosphotransfer from nucleoside triphosphates, N119S Dd-NDPK; format: biochemical; details: for times faster reaction with the N119S enzyme than wild type: from Table I; for k2/Ks N119S (catalytic efficiency of phosphotransfer): pre-steady state, stopped-flow, average of three determinations
T1 construct: made in house
Experimental: (§1) All numbers in italics have already been published (Schneider, 1998, 2000) The kinetic constants were measured at the pre-steady-state level using a fluorescence stopped-flow device. The binding constants were determined at equilibrium by recording the increase in fluorescence (Schneider, 2000). Values are the average of three independent determinations.
As the diphosphate form of analogs were not always available, the triphosphate analogs were used to study phosphate transfer in reaction as in Scheme I. Experiments were performed with an Hi-Tech DX2 microvolume stopped-flow reaction (Schneider, 1998) at Aexc=296 nm (for Ado derivatives) or […] (for other nucleotides), 2 mm excitation slit and a 320 nm cutoff filter at the emission. After mixing NDPK (1 μM) and NTP or an analogTP (10-500 μM), the intrinsic protein fluorescence was recorded for 10-200 sec. In each experiment, 400 pairs of data were recorded, and the data from 3-4 identical experiments were averaged and fitted to a number of non-linear analytical equations using the software provided by Hi-Tech. All curves fitted to single exponentials.
The data were analyzed using the reaction scheme: [drawing 1]
In both the forward and the reverse reactions, the product concentration remains very low, thus the product binding can be neglected, and the observed single step could be attributed to the phosphotransfer (Schneider, 1998). The rate of this observed single step is: [formula]
and reaches a limiting value (k+2) at NTP saturation. Saturation could not be obtained with the concentrations of any NTP used here. Therefore, catalytic efficiencies of phosphorylation (CEphos=k+2/(k−1/k+1)=k+2/KS) were measured, which are equivalent to second order constants and allow a reliable comparison of a variety of NDP kinase substrates.

[2] = target: T2, Inactive-N119S Dd-NDPK (EI-N119S) (Dictyostelium discoideum, UniProt P22887, F64W/H122G/N119S); test: Equilibrium fluorescence titration of nucleotide binding, inactive Dd-NDPK variant with N119S; details: relative affinity of NTP for both enzymes
T2 construct: made in house
Experimental: as §1
In contrast to what is observed with natural nucleotides, the Ser mutation specifically improves the catalytic efficiency with nucleotides analogs as shown in Table I; ddGTPs and AZT-TP react, respectively, 1.5 and 4 times faster with the N119S enzyme. […] Analog binding affinity was measured using a variant of Dd-NDPK (EI) as described (Schneider, 2000). This mutant (H122G-F64W) lacks the catalytic histidine, and a tryptophan replaces the phenylalanine stacking on the base in the active site (Schneider, 2000). The mutation N119S was inserted in EI in order to measure the nucleotide affinity by fluorescence titration. The Ser contribution to the binding was evaluated from the relative affinity of NTP for both enzymes (Table I).
for N119S, N119T and N119Y mutations, respectively. Altered bases as compared to the wild type sequence are underlined in bold. Sequences were checked by automatic sequencing. The mutant EI-N119S was obtained by mutation of the previously described F64W-H122G mutated NDP kinase (here called EI) (Schneider 2000).

[3] = target: T3, Dictyostelium discoideum NDP kinase (Dd-NDPK) variant N119S, SEQ ID NO: 1 (Dictyostelium discoideum, UniProt P22887, N119S); test: Pre-steady-state phosphotransfer, fluorescence stopped-flow; format: biochemical; details: for k2/Ks: catalytic efficiency of phosphotransfer, N119S, pre-steady state; for reaction with N119S relative to wild type (times faster): from k2/Ks of Table I
T3 construct: made in house

[4] = target: T4, human NDP kinase A (NDPK-A) variant L55H-N115S, SEQ ID NO: 3 (Homo sapiens, UniProt P15531, L55H/N115S); test: as above; format: biochemical; details: for k2/Ks: catalytic efficiency of phosphotransfer, L55H-N115S, pre-steady state; for Specificity change (R): ratio of catalytic efficiencies analog vs natural nucleotide, mutant vs wild type
T4 construct: made in house; host or cells: E. coli

[5] = target: T5, human NDP kinase A (NDPK-A) variant N115S, SEQ ID NO: 2 (Homo sapiens, UniProt P15531, N115S); test: as above; format: biochemical; details: for k2/Ks: catalytic efficiency of phosphotransfer, N115S, pre-steady state; for Specificity change (R): ratio of catalytic efficiencies analog vs natural nucleotide, mutant vs wild type
T5 construct: made in house; host or cells: E. coli
T5 sequence (P15531 whole entry N115S): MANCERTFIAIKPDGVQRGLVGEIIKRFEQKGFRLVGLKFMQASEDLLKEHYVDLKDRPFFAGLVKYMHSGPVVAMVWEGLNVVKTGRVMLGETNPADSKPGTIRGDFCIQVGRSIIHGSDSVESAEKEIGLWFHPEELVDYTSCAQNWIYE

T3 sequence (P22887 whole entry N119S): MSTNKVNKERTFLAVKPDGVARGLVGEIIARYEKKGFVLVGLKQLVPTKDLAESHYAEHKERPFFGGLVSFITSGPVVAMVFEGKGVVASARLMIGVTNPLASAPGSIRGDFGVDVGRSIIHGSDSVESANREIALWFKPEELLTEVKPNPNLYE
T1 sequence (P22887 whole entry N119S): as above
T4 sequence (P15531 whole entry L55H/N115S): as the sequence (P15531 whole entry N115S) above, with L55H counted along it
T2 sequence (P22887 whole entry F64W/N119S/H122G): as the sequence (P22887 whole entry N119S) above, with F64W, H122G counted along it

Compound: Cc1cn([C@H]2C[C@H](N=[N+]=[N-])[C@@H](COP(=O)(O)OP(=O)(O)OP(=O)(O)O)O2)c(=O)[nH]c1=O [AZT-TP]
- times faster reaction with the N119S enzyme than wild type [1]: 4 times
- k2/Ks N119S (catalytic efficiency of phosphotransfer) [1]: 1100 M⁻¹ s⁻¹
- factor by which Ser 119 reinforces affinity (EI-N119S versus EI) [2]: 15 fold
- k2/Ks [3]: 1100 M⁻¹ s⁻¹
- reaction with N119S relative to wild type (times faster) [3]: 4 times
- k2/Ks [4]: 6770 M⁻¹ s⁻¹
- Specificity change (R) [4]: (240)
- k2/Ks [5]: 900 M⁻¹ s⁻¹
- Specificity change (R) [5]: (125)

Compound: Nc1nc2c(ncn2[C@H]2CC[C@@H](COP(=O)(O)OP(=O)(O)OP(=O)(O)O)O2)c(=O)[nH]1 [ddGTP, dideoxy-GTP]
- times faster reaction with the N119S enzyme than wild type [1]: 1.5 times
- k2/Ks N119S (catalytic efficiency of phosphotransfer) [1]: 3500 M⁻¹ s⁻¹
- factor by which Ser 119 reinforces affinity (EI-N119S versus EI) [2]: 2 fold
- k2/Ks [3]: 3500 M⁻¹ s⁻¹
- reaction with N119S relative to wild type (times faster) [3]: 1.5 times
- k2/Ks [4]: 4200 M⁻¹ s⁻¹
- Specificity change (R) [4]: (160)
- k2/Ks [5]: 750 M⁻¹ s⁻¹
- Specificity change (R) [5]: (60)
